Reference: ChEMBL document CHEMBL4800731, “Data for DCP probe JNJ-65355394” (2021)

Tests used:
Conditions in all cases: Compound concentration 10.0 uM
[1] = target: T1, 5-hydroxytryptamine receptor 1A (Homo sapiens) (UniProt P08908)
T1 sequence (whole entry): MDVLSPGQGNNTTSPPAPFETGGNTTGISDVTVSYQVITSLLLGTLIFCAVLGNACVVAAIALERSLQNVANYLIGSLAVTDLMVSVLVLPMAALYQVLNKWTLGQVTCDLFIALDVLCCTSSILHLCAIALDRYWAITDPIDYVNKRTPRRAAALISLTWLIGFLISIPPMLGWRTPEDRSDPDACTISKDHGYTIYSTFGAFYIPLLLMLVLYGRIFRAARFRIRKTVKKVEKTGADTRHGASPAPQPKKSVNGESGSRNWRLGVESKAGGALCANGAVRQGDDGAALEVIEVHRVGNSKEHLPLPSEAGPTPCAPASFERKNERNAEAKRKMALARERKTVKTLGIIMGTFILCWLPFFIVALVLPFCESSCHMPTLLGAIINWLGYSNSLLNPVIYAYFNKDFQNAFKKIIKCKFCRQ

[2] = target: Alpha-2A adrenergic receptor (Homo sapiens) (UniProt P08913)
[3] = target: Delta-type opioid receptor (Homo sapiens) (UniProt P41143)
[4] = target: T2, Alpha-1B adrenergic receptor (Homo sapiens) (UniProt P35368)
T2 sequence (whole entry): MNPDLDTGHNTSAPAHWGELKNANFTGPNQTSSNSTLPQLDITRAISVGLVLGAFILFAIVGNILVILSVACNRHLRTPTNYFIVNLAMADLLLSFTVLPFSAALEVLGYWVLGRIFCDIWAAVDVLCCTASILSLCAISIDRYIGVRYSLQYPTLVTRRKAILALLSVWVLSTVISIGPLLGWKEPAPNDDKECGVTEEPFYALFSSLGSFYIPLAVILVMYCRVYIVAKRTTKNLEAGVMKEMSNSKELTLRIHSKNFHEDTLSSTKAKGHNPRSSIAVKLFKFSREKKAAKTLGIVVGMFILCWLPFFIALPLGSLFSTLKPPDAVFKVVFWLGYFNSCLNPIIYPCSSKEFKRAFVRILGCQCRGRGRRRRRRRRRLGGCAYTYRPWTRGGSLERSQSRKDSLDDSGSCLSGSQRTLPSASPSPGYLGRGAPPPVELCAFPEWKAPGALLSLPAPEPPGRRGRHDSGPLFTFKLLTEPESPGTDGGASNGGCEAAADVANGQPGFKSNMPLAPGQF

[5] = target: 5-hydroxytryptamine receptor 2B (Homo sapiens) (UniProt P41595)
[6] = target: Alpha-1A adrenergic receptor (Homo sapiens) (UniProt P35348)
[7] = target: Sigma intracellular receptor 2 (Homo sapiens, UniProt Q5BJF2)
[8] = target: T3, 5-hydroxytryptamine receptor 3A (Homo sapiens) (UniProt P46098)
T3 sequence (whole entry): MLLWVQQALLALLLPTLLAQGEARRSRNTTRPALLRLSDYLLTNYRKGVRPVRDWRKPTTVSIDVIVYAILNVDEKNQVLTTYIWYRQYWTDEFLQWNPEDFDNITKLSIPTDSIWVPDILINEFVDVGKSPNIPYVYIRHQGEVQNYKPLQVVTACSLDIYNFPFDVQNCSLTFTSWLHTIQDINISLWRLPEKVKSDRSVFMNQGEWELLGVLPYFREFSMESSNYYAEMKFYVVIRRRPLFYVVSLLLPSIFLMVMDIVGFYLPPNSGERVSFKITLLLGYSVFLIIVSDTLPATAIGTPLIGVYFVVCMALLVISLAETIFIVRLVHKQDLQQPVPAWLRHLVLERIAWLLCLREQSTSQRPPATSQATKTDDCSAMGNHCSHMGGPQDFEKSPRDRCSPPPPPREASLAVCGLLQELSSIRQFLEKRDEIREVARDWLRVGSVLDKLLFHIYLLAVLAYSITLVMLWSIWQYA

[9] = target: Alpha-2C adrenergic receptor (Homo sapiens) (UniProt P18825)
[10] = target: T4, GABA-A receptor; anion channel (Rattus norvegicus) (UniProt O09028+P15431+P18506+P18508+P19969+P20236+P23574+P23576+P28471+P28473+P30191+P62813+P63079+P63138+Q91ZM7+Q9ES14)
[11] = target: Sigma non-opioid intracellular receptor 1 (Homo sapiens, UniProt Q99720)
[12] = target: Histamine H1 receptor (Homo sapiens) (UniProt P35367)
[13] = target: Muscarinic acetylcholine receptor M3 (Homo sapiens) (UniProt P20309)
[14] = target: 5-hydroxytryptamine receptor 5A (Homo sapiens) (UniProt P47898)
[15] = target: Beta-1 adrenergic receptor (Homo sapiens) (UniProt P08588)
[16] = target: T4, GABA-A receptor; anion channel (Rattus norvegicus); remark: listed apart in the source
[17] = target: Beta-2 adrenergic receptor (Homo sapiens) (UniProt P07550)
[18] = target: 5-hydroxytryptamine receptor 7 (Homo sapiens) (UniProt P34969)
[19] = target: 5-hydroxytryptamine receptor 6 (Homo sapiens) (UniProt P50406)
[20] = target: Mu-type opioid receptor (Homo sapiens) (UniProt P35372)
[21] = target: D(2) dopamine receptor (Homo sapiens) (UniProt P14416)
[22] = target: Muscarinic acetylcholine receptor M4 (Homo sapiens) (UniProt P08173)
[23] = target: Histamine H3 receptor (Homo sapiens) (UniProt Q9Y5N1)
Rattus norvegicus = species on record: Rattus norvegicus
[24] = target: Sodium-dependent noradrenaline transporter (Homo sapiens) (UniProt P23975)

Chain of 5-hydroxytryptamine receptor 7 (Homo sapiens) (P34969 whole entry): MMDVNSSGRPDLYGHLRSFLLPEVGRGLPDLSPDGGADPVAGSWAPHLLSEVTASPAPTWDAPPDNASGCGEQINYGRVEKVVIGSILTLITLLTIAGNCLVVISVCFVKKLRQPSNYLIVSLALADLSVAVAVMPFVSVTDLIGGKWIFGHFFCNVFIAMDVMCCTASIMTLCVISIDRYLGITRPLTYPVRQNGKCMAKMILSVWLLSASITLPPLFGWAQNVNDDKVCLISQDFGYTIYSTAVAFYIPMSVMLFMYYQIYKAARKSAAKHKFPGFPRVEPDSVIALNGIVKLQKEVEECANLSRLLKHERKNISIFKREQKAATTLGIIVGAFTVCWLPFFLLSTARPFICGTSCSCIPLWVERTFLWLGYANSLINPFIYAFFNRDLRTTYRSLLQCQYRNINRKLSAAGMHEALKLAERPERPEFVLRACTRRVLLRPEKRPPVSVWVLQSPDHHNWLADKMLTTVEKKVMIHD
Chain of Delta-type opioid receptor (Homo sapiens) (P41143 whole entry): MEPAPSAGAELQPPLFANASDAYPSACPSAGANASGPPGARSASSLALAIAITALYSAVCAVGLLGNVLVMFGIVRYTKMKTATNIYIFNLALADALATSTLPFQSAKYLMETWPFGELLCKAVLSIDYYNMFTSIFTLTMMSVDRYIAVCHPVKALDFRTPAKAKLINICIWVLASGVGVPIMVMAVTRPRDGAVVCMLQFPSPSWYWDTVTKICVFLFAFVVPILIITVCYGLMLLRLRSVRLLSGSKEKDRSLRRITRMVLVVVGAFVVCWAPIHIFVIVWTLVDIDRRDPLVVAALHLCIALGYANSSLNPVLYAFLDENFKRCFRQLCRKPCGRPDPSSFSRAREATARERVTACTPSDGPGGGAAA
Chain of Sigma intracellular receptor 2 (Q5BJF2 whole entry): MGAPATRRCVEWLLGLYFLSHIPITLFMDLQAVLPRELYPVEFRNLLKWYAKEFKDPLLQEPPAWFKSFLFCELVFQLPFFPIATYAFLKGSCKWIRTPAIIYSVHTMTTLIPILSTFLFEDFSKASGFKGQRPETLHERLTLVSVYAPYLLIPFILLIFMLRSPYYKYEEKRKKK
Chain of 5-hydroxytryptamine receptor 5A (Homo sapiens) (P47898 whole entry): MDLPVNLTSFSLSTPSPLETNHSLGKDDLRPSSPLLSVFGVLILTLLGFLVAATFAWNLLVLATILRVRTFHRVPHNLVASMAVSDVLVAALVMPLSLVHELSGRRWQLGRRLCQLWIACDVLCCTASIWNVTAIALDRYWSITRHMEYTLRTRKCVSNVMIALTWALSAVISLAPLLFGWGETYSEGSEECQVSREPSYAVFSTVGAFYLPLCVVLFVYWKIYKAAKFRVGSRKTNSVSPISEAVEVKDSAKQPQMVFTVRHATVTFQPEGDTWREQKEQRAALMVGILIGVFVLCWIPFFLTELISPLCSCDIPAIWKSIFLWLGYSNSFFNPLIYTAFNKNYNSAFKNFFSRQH
Chain of Alpha-2A adrenergic receptor (Homo sapiens) (P08913 whole entry): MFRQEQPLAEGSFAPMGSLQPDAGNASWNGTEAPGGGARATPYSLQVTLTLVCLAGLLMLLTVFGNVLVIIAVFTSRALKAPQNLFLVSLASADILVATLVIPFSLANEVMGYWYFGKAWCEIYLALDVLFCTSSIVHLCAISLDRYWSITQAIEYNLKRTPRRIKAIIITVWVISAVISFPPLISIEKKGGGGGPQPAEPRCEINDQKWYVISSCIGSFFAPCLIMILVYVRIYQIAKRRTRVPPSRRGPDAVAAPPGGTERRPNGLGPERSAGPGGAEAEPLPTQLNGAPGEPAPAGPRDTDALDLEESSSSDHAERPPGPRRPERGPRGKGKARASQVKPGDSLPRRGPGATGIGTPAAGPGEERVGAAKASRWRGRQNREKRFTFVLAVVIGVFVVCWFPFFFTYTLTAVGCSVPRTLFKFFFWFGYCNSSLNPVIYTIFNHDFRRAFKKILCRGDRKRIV
Chain of Histamine H1 receptor (Homo sapiens) (P35367 whole entry): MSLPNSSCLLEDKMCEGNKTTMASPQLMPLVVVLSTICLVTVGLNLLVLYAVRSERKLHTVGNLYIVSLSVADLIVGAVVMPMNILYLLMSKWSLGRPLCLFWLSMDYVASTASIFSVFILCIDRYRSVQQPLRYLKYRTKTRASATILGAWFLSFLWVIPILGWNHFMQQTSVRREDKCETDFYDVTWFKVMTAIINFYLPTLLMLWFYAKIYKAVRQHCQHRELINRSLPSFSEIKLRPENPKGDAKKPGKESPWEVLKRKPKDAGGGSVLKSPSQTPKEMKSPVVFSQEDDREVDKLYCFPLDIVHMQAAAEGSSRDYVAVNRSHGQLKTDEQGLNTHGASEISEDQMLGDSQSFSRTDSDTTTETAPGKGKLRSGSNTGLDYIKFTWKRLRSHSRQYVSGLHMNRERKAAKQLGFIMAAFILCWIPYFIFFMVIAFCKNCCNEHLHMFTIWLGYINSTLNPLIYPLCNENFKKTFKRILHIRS
Chain of Alpha-2C adrenergic receptor (Homo sapiens) (P18825 whole entry): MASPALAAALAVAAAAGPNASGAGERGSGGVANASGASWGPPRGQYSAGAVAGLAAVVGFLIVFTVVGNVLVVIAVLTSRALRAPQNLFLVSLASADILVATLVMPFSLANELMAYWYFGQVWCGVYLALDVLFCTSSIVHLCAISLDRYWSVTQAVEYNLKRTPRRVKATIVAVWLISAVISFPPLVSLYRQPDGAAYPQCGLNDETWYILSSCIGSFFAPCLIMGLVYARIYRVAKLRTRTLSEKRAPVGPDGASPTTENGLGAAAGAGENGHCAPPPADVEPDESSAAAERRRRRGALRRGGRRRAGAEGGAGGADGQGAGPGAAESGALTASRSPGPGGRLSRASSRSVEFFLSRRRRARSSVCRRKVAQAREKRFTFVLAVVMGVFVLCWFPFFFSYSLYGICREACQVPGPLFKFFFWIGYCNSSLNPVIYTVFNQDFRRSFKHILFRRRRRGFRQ
Chain of Alpha-1A adrenergic receptor (Homo sapiens) (P35348 whole entry): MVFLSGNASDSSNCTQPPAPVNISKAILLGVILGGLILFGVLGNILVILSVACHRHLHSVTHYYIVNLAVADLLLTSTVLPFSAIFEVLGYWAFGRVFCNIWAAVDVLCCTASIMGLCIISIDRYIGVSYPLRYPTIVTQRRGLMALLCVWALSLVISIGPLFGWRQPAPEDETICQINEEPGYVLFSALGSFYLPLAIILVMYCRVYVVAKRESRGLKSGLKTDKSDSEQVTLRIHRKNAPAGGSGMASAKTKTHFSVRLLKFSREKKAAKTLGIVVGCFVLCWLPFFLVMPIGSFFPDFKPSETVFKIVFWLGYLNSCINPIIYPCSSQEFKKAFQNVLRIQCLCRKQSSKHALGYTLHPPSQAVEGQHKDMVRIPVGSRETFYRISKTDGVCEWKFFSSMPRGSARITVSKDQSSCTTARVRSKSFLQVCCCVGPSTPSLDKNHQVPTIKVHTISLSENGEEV
Chain of Muscarinic acetylcholine receptor M4 (Homo sapiens) (P08173 whole entry): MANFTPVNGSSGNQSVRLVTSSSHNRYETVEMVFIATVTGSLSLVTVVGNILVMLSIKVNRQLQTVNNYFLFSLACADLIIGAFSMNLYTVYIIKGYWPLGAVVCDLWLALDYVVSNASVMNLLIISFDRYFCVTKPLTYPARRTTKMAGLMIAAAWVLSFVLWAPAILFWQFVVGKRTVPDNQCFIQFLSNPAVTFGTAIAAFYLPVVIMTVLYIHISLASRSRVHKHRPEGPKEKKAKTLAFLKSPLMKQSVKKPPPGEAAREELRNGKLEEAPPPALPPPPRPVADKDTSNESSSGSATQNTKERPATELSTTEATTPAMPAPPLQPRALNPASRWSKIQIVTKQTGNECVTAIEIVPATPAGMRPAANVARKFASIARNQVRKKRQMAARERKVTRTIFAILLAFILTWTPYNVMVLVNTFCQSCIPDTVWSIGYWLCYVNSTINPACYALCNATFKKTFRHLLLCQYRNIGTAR
Chain of Sigma non-opioid intracellular receptor 1 (Q99720 whole entry): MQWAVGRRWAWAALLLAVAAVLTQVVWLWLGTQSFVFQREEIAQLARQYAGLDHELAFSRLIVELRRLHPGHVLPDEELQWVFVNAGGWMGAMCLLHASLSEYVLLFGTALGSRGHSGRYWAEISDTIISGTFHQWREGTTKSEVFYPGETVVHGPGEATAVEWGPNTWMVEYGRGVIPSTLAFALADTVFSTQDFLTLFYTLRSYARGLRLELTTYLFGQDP
Chain of D(2) dopamine receptor (Homo sapiens) (P14416 whole entry): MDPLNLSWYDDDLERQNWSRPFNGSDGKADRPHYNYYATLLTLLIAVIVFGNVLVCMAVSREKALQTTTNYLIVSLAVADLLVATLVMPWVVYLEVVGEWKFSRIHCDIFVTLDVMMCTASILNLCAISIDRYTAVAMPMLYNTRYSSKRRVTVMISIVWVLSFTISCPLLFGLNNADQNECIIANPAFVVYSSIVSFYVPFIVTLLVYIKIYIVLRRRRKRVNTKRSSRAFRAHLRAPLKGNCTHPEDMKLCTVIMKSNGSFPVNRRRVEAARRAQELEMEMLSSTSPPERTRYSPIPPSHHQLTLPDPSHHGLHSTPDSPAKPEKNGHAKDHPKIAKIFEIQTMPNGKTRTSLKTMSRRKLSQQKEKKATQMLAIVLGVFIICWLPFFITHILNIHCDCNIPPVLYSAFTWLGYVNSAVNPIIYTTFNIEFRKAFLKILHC
Chain of Histamine H3 receptor (Homo sapiens) (Q9Y5N1 whole entry): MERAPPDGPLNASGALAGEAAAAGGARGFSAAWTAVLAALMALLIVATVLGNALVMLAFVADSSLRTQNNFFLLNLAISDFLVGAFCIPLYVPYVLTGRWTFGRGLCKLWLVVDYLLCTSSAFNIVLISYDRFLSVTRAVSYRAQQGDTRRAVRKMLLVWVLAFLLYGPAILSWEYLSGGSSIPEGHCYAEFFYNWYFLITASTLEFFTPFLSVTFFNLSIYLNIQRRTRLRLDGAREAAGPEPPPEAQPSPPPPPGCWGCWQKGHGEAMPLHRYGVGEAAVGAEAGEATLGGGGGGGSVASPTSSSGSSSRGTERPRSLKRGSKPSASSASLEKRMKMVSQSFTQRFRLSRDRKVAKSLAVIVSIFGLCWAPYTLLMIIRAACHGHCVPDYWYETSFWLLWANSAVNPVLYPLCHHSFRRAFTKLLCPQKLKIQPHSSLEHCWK

Row | Compound | inhibition [1] [%] | inhibition [2] [%] | inhibition [3] [%] | inhibition [4] [%] | inhibition [5] [%] | inhibition [6] [%] | inhibition [7] [%] | inhibition [8] [%] | inhibition [9] [%] | inhibition [10] [%] | inhibition [11] [%] | inhibition [12] [%] | inhibition [13] [%] | inhibition [14] [%] | inhibition [15] [%] | inhibition [16] [%] | inhibition [17] [%] | inhibition [18] [%] | inhibition [19] [%] | inhibition [20] [%] | also measured
1 | CC(=O)Nc1nc(CN2CCC[C@H](Cc3cc(C)nc(C)c3)C2)cs1 [JNJ-73924149] | 12.3 | 31.7 | 8.67 | -3.57 | 17.9 | -1.89 | 59.6 | 20.7 | 36.5 | 43.6 | 101 | 44.2 | -9.98 | 17.8 | 4.41 | 43.5 | -8.1 | 2.58 | 25.6 | 27.3 | inhibition [21]: 8.04%; inhibition [22]: 8.78%; inhibition [23]: 27.1%; inhibition (Rattus norvegicus): 11.2%; inhibition [24]: 17.8%
2 | CC(=O)Nc1ncc(CN2CCC[C@H](Cc3cc(C)nc(C)c3)C2)s1 [JNJ-65355394] | 22.2 | 8.68 | 11.8 | -5.2 | 6.7 | 2.36 | 19 | 6.87 | 31.9 | -8.39 | 46.5 | 44 | 8.4 | 18.7 | 3.29 | 8.07 | -5.16 | 9.6 | 14.3 | 12.8 | inhibition [21]: 0.63%; inhibition [22]: -5.53%; inhibition [23]: 10.8%; inhibition (Rattus norvegicus): 5.69%; inhibition [24]: 12.7%
